4 molecules from paper PMC12629174, “Exploring Bioactive Metabolites From Fusarium falciforme and Aspergillus terreus Isolated From Protease‐Rich Fruits: Antifungal, Antitrypanosomal, and Enzymatic Inhibitory Activities” (Chemistry & Biodiversity, 2025) can be followed below.

The term IC50 denotes the midpoint of a concentration-inhibition curve. For orientation: inhibition means the percentage by which the read-out fell short of the control.

The target of assay [1] is T1, papain (Carica papaya, UniProt P00784).
T1 sequence (P00784 134-345): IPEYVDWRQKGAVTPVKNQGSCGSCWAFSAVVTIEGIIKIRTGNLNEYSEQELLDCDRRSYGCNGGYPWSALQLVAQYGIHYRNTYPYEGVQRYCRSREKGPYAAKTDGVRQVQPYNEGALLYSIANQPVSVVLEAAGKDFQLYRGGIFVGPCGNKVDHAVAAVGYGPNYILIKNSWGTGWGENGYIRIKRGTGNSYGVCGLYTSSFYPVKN
Description: fluorimetric papain assay with ZFR-MCA substrate. It is filed as biochemical.

The target in assay [2] is T1, papain. The experiment in a line: fluorimetric papain assay with ZFR-MCA; titration of papain by the irreversible inhibitor (positive control). It is filed as biochemical. The following applies: read-out: % inhibition at 1 μM (25 nM in the well).

Like-named read-outs stand apart in the source and are kept apart here.

`CC(=C\C(=O)O)/C=C(\C)C[C@H](C)CCCC[C@@H](O)C(CO)C(=O)O` (stereo partly shown) [compound 2, fusaridioic acid A]: the concentration for half-maximal inhibition (IC50) at papain [1] (read-out: IC50) came to 28.6 µM. The molecule `COC(=O)[C@]1(Cc2ccc(O)c(CC=C(C)C)c2)OC(=O)C(O)=C1c1ccc(O)cc1` [compound 3, butyrolactone I] showed an IC50 against papain [1] of 6.24 µM.

`CC(=C\C(=O)O)/C=C(\C)C[C@H](C)CCCC[C@H]1OC(=O)[C@@H]1CO` [compound 1, hymeglusin]: at papain [1] (read-out: IC50), the IC50 is 9.38 µM. Regarding `CC(C)C[C@H](NC(=O)C1OC1C(=O)O)C(=O)NCCCCNC(=N)N` (stereo partly drawn) [E-64, 1‐[L‐N‐(trans‐epoxysuccinyl)leucyl] amino‐4‐guanidinobutane], on papain [2], the inhibition at 1 µM stood at 90%.
